Measured values from patent US20230073777A1, “CYCLIC-AMP RESPONSE ELEMENT BINDING PROTEIN (CBP) AND/OR ADENOVIRAL E1A BINDING PROTEIN OF 300 KDA (P300) DEGRADATION COMPOUNDS AND METHODS OF USE” (CULLGEN (SHANGHAI), INC., priority 2019, published 2023).
Where two headings read alike, the source gives them in different places.

Key:
LNCaP cells = test: LNCaP cell viability assay (CellTiter-Glo); assay type: cell-based; settings: Homo sapiens, 72 h, LNCaP prostate cancer cell viability inhibition, 3 days
Outline: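 LNCaP cells, 5000/well, exposed to compounds in 12-point 3-fold serial dilution (top 10 μM) for 3 days. Viability by CellTiter-Glo luminescence, normalized to untreated cells; IC50 by least-squares nonlinear regression.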

P300 = P300 (Homo sapiens, UniProt Q09472); test: Immunoblotting of P300 protein levels in LNCaP or 22RV1 cells; assay type: cell-based; parameters: LNCaP or 22RV1 cells that express CBP/P300 proteins were treated with GNE-781 or the bivalent compounds; endogenous in cells; host or cells: LNCaP (clone FGC) or 22RV1 cells; settings: read-out: Degradation (10 nM)
Outline: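 LNCaP or 22RV1 cells treated with compounds for indicated hours, DMSO as negative control. RIPA lysates resolved by SDS-PAGE and immunoblotted for P300 or CBP, tubulin or vinculin as loading control; chemiluminescent bands quantitated.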

[1] = percentage of inhibition of p300 at 10 nM (Table 2)
[2] = percentage of inhibition of p300 at 10 nM (Table 3)

Sequence of P300 (Q09472 whole entry): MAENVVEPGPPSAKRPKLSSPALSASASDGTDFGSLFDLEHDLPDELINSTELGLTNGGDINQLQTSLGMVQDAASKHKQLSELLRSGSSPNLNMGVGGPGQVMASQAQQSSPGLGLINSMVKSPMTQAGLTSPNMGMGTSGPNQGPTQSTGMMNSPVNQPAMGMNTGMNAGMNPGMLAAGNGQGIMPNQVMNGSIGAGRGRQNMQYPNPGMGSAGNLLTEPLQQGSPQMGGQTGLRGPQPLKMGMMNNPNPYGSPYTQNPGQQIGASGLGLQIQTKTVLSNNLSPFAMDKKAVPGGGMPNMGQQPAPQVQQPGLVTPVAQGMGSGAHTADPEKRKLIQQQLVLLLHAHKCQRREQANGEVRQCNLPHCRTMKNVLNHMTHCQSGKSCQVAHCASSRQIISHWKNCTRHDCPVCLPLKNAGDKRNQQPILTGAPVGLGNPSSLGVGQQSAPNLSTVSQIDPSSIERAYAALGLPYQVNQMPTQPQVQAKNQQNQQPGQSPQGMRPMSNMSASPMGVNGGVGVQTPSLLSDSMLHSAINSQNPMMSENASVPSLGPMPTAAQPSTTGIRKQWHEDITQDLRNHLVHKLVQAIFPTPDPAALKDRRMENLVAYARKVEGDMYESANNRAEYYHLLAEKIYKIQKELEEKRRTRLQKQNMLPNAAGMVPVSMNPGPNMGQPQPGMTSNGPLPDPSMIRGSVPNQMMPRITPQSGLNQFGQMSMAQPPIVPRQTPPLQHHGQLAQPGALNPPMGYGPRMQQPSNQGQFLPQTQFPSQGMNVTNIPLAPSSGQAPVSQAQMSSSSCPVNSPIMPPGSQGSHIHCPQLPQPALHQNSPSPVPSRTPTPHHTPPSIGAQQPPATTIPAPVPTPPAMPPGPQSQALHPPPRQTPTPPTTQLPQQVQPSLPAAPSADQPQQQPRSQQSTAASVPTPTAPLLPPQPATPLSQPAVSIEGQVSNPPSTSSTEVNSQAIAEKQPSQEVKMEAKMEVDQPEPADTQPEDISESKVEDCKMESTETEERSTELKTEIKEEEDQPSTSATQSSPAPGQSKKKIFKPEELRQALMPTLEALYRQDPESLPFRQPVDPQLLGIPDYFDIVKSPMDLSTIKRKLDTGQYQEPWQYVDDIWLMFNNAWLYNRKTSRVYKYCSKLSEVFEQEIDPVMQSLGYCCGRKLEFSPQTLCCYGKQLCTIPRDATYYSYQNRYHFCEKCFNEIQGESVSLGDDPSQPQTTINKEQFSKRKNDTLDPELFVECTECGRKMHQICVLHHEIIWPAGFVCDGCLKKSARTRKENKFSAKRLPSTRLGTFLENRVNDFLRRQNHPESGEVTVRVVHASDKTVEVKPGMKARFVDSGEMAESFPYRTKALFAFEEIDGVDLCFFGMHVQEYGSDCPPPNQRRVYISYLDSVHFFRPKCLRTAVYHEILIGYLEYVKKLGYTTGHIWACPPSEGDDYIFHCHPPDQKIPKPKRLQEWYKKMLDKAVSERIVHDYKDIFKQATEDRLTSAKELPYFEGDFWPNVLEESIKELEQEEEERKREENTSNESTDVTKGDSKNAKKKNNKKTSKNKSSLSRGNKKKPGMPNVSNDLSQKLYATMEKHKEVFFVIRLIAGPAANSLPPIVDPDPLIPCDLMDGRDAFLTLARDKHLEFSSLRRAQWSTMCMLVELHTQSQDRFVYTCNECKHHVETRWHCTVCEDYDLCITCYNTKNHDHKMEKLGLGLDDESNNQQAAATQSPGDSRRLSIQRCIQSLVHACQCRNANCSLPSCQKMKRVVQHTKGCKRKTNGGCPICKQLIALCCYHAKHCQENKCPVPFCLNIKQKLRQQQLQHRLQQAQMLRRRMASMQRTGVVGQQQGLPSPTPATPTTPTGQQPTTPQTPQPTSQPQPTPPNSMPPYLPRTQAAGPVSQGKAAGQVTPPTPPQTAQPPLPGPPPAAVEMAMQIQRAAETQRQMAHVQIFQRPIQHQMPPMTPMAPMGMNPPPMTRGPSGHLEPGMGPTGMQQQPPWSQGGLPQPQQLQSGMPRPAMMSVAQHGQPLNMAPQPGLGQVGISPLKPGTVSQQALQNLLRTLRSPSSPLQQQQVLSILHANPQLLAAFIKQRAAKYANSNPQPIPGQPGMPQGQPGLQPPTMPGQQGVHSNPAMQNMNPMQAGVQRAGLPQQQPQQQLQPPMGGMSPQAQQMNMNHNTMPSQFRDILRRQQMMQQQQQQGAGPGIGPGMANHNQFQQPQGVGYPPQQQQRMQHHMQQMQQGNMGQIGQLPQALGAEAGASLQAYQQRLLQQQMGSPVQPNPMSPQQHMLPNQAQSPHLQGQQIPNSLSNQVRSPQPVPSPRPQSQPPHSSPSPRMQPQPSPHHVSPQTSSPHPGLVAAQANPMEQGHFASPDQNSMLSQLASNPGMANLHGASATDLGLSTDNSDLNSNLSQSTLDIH

SMILES	IC50 (LNCaP cells; CellTiter-Glo (Table 2)) [nM]	inhibition at 0.01 µM (P300; [1]) [%]	IC50 (LNCaP cells; CellTiter-Glo (Table 3)) [nM]	inhibition at 0.01 µM (P300; [2]) [%]
CNC(=O)N1CCc2c(c(N3CCCc4cc(-c5cnn(CC(=O)NCCCCNc6cccc7c6C(=O)N(C6CCC(=O)NC6=O)C7=O)c5)c(C(F)F)cc43)nn2C2CCOCC2)C1 (stereo not drawn) [P-039, 3-(7-(Difluoromethyl)-6-(1-(2-((4-((2-(2,6-dioxopiperidin-3-yl)-1,3-dioxoisoindolin-4-yl)amino)butyl)amino)-2-oxoethyl)-1H-pyrazol-4-yl)-3,4-dihydroquinolin-1(2H)-yl)-N-methyl-1-(tetrahydro-2H-pyran-4-yl)-1,4,6,7-tetrahydro-5H-pyrazolo[4,3-c]pyridine-5-carboxamide]	397	< 20	–	–
CC(=O)N1CCc2c(c(N3CCCc4cc(-c5cnn(C)c5)c(C(F)F)cc43)nn2C2CCN(CCCCCCNc3cccc4c3C(=O)N(C3CCC(=O)NC3=O)C4=O)CC2)C1 (stereo not drawn) [P-112, 4-((6-(4-(5-acetyl-3-(7-(difluoromethyl)-6-(1-methyl-1H-pyrazol-4-yl)-3,4-dihydroquinolin-1(2H)-yl)-4,5,6,7-tetrahydro-1H-pyrazolo[4,3-c]pyridin-1-yl)piperidin-1-yl)hexyl)amino)-2-(2,6-dioxopiperidin-3-yl)isoindoline-1,3-dione]	–	–	2.1	> 80
CNC(=O)N1CCc2c(c(N3CCCc4cc(-c5cnn(CC(=O)NCCCCCCCNc6ccc7c(c6)C(=O)N(C6CCC(=O)NC6=O)C7=O)c5)c(C(F)F)cc43)nn2C2CCOCC2)C1 (stereo not drawn) [P-026, 3-(7-(difluoromethyl)-6-(1-(2-((7-((2-(2,6-dioxopiperidin-3-yl)-1,3-dioxoisoindolin-5-yl)amino)heptyl)amino)-2-oxoethyl)-1H-pyrazol-4-yl)-3,4-dihydroquinolin-1(2H)-yl)-N-methyl-1-(tetrahydro-2H-pyran-4-yl)-1,4,6,7-tetrahydro-5H-pyrazolo[4,3-c]pyridine-5-carboxamide]	3.2	> 80	–	–
CNC(=O)N1CCc2c(c(N3CCCc4cc(-c5cnn(C)c5)c(C(F)F)cc43)nn2C2CCN(CCCCCCCc3cccc4c3C(=O)N(C3CCC(=O)NC3=O)C4=O)CC2)C1 (stereo not drawn) [P-097, 3-(7-(difluoromethyl)-6-(1-methyl-1H-pyrazol-4-yl)-3,4-dihydroquinolin-1(2H)-yl)-1-(1-(7-(2-(2,6-dioxopiperidin-3-yl)-1,3-dioxoisoindolin-4-yl)heptyl)piperidin-4-yl)-N-methyl-1,4,6,7-tetrahydro-5H-pyrazolo[4,3-c]pyridine-5-carboxamide]	–	–	49	> 80
CNC(=O)N1CCc2c(c(N3CCCc4cc(-c5cnn(C)c5)c(C(F)F)cc43)nn2C2CCN(C(=O)CCCCCCc3cccc4c3CN(C3CCC(=O)NC3=O)C4=O)CC2)C1 (stereo not drawn) [P-086, 3-(7-(Difluoromethyl)-6-(1-methyl-1H-pyrazol-4-yl)-3,4-dihydroquinolin-1(2H)-yl)-1-(1-(7-(2-(2,6-dioxopiperidin-3-yl)-1-oxoisoindolin-4-yl)heptanoyl)piperidin-4-yl)-N-methyl-1,4,6,7-tetrahydro-5H-pyrazolo[4,3-c]pyridine-5-carboxamide]	–	–	21.1	50 to 80
CC(=O)N1CCc2c(c(N3CCCc4cc(-c5cnn(C)c5)c(C(F)F)cc43)nn2C2CCN(C(=O)CCCCC#Cc3cccc4c3CN(C3CCC(=O)NC3=O)C4=O)CC2)C1 (stereo not drawn) [P-122, 3-(4-(7-(4-(5-Acetyl-3-(7-(difluoromethyl)-6-(1-methyl-1H-pyrazol-4-yl)-3,4-dihydroquinolin-1(2H)-yl)-4,5,6,7-tetrahydro-1H-pyrazolo[4,3-c]pyridin-1-yl)piperidin-1-yl)-7-oxohept-1-yn-1-yl)-1-oxoisoindolin-2-yl)piperidine-2,6-dione]	–	–	84.4	> 80
